Results as given in patent US20110002843A1, “METHOD OF DETECTING MYOCARDIAL DYSFUNCTION IN PATIENTS HAVING A HISTORY OF ASTHMA OR BRONCHOSPASM” (priority 2005, published 2011).

What was measured:
[1] = test system: muscarinic receptors; assay: Affinity for muscarinic receptors; assay type: binding
[2] = test system: β-adrenergic receptors; assay: Affinity for β-adrenergic receptors; assay type: binding
[3] = biological target: T1, Adenosine Receptor A1 (Cavia porcellus, UniProt P47745); assay: G.P. Right Atrium (Negative Inotropy) bioassay; set-up: species or system guinea pig
T1 construct: prepared guinea pig assays for binodenoson; from tissue; host or cells: isolated guinea pig right / left atrium
T1 sequence (P47745 1-326): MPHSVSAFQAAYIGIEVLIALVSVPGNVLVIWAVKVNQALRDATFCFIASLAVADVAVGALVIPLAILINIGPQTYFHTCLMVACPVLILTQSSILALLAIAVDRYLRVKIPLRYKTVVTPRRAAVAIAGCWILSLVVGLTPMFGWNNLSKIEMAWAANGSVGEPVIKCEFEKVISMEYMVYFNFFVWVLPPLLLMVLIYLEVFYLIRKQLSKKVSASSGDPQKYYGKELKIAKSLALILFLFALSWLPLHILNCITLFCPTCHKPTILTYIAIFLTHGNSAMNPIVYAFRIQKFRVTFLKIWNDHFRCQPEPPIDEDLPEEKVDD
Source text: (§1) It is further preferable to use compounds that are selective for the A2A receptor over the A2B receptor. Additional methods are known in the art for performing bioassays and are useful to identify selectivity to the A2B receptor as well as confirming selectivity and potency in vivo. Such bioassays are typically performed prior to animal and human trials.

[4] = biological target: T1, Adenosine Receptor A1; assay: G.P. Left Atrium (Negative Inotropy) bioassay; set-up: species or system guinea pig
Source text: as §1

Nc1nc(N/N=C/C2CCCCC2)nc2c1ncn2[C@@H]1O[C@H](CO)[C@@H](O)[C@H]1O (stereo in doubt) [Binodenoson, 2-{2-[(Cyclohexyl)methylene]hydrazino}adenosine]
affinity [1]: no affinity
affinity [2]: no affinity
EC50 [3]: 21 µM
EC50 [4]: 38.9 µM
